Reference: US20250042855A1, “PERIPHERALLY AND LUMINALLY-RESTRICTED INHIBITORS OF THE SEROTONIN TRANSPORTER AS TREATMENTS FOR DISORDERS OF GASTROINTESTINAL MOTILITY AND GUT-BRAIN AXIS” (The Johns Hopkins University, priority 2021, published 2025)
Structures can show the parent of a compound that is named as a salt.

Assays:
[1] = biological target: T1, serotonin transporter SERT (Homo sapiens, UniProt P31645); experiment: Uptake of serotonin (5-HT) in human HEK-293 cells, quantitation of [3H] serotonin; format: cell-based; settings: HEK293, 0.25 h, 10 micromolar concentration, 15 minutes @ 25° C., read-out: Activity Range: antagonism of uptake of serotonin (5-HT)
T1 construct: host or cells: HEK-293
Description: Uptake of serotonin (5-Hydroxytryptamine (5-HT)) in human HEK-293 cells embryonic kidney was measured according to the literature procedure by Gu H, Wall S. C. and Rudnick G. J Biol Chem. 1994 269, 7124. Using the following conditions: • Quantitation Method: Quantitation of [^3H] Serotonin • Vehicle: 0.50% DMSO • Incubation Time/Temp: 15 minutes @ 25° C. • Incubation Buffer: 5 mM Tris —HCl, 7.5 mM HEPES, pH 7.1, 120 mM NaCl, 5.4 mM KCl, • 1.2 mM CaCl2, 1.2 mM MgSO4, 5 mM DGlucose, 1 mM Ascorbic Acid
Any compound with minimum of 20% antagonism at 10 micromolar concentration as described above, is deemed a SERT inhibitor.

[2] = test system: gastric emptying in C57B/6 mice; experiment: Gastric emptying (phenol red) in IBS and control mice after 10 days of oral treatment; format: in vivo; settings: P<0.05; for gastric emptying: 10 mg/kg by gavage once a day for 10 days, versus vehicle
Excerpt: In this experiment our aim was to study the effects of N-(2-((diaminomethylene)amino)ethyl)-4-(((3S,4R)-4-(4-fluorophenyl)piperidin-3-yl)methoxy)benzamide (example 8) in healthy mice as well as those with a model of gastrointestinal dysmotility (irritable bowel syndrome). The IBS model was induced by mild neonatal colorectal irritation in C57B/6 mice; control mice received saline. Twenty μL of 0.5% acetic acid (AA) or saline were infused into the colorectum of mice during postnatal day 9-12. Pups were weaned at 3 weeks of age and allowed to grow up normally and tested after 8-12 weeks of age.
Male IBS and control mice were treated with vehicle, Example 8 (10 mg/kg) and paroxetine (10 mg/kg) by gavage (10 ml/kg) once a day for 10 days. On the day 9, mice were fasted overnight. On the day 10, mice were treated with drugs followed by gavage with 0.3 ml of 0.05% phenol red in methylcellulose solution. Fifteen minutes later, mice were sacrificed and the stomach was removed after ligating the cardia and pylorus with hemostats. One mouse was sacrificed immediately after gavage of phenol red (0 time) used as control. The stomachs were homogenized and phenol red were extracted. After measuring the density of phenol red, the gastric empty was calculated as
The data were analyzed by Two-WAY ANOVA followed by Student-Newman-Keuls post-hoc test.

[3] = IBS mice (neonatal acetic acid colorectal irritation)

T1 sequence (P31645 whole entry): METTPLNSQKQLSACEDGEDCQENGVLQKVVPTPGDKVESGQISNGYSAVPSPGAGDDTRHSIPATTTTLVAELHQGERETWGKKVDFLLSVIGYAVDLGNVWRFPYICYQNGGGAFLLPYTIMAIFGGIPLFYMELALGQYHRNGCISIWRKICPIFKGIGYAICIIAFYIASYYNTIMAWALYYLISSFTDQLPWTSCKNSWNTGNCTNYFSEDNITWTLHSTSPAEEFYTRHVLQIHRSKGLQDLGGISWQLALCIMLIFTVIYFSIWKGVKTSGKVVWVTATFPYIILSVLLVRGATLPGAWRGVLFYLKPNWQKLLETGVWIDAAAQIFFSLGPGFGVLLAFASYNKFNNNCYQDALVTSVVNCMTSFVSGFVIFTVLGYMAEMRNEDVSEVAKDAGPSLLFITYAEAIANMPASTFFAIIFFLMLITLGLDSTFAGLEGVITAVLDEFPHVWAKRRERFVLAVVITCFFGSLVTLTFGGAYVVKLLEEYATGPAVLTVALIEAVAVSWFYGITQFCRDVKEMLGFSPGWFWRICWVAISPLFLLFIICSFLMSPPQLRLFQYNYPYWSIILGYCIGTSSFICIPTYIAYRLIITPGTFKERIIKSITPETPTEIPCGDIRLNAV

| Structure (SMILES) | inhibition at 10 µM [1] [%] | also measured |
| --- | --- | --- |
| O=C(O)COc1ccc(OC[C@@H]2CNCC[C@H]2c2ccc(F)cc2)cc1 [Example 15, 2-(4-(((3S,4R)-4-(4-fluorophenyl)piperidin-3-yl)methoxy)phenoxy)acetic acid hydrochloride] | 20 to 40 | – |
| CN(C)CCNC(=O)c1ccc(OC[C@@H]2CNCC[C@H]2c2ccc(F)cc2)cc1 [Example 6, N-(2-(dimethylamino)ethyl)-4-(((3S,4R)-4-(4-fluorophenyl)piperidin-3-yl)methoxy)benzamide hydrochloride] | > 50 | – |
| O=C(O)c1ccc(OC[C@@H]2CNCC[C@H]2c2ccc(F)cc2)cc1 [Example 1, 4-(((3S,4R)-4-(4-fluorophenyl)piperidin-3-yl)methoxy)benzoic acid hydrochloride] | > 50 | – |
| CN(C)CCOc1ccc(OC[C@@H]2CNCC[C@H]2c2ccc(F)cc2)cc1 [Example 11, 2-(4-(((3S,4R)-4-(4-fluorophenyl)piperidin-3-yl)methoxy)phenoxy)-N,N-dimethylethan-1-amine hydrochloride] | 40 to 50 | – |
| O=C(O)c1cccc(OC[C@@H]2CNCC[C@H]2c2ccc(F)cc2)c1 [Example 2, 3-(((3S,4R)-4-(4-fluorophenyl)piperidin-3-yl)methoxy)benzoic acid hydrochloride] | 40 to 50 | – |
| NCCOc1ccc(OC[C@@H]2CNCC[C@H]2c2ccc(F)cc2)cc1 [Example 10, 2-(4-(((3S,4R)-4-(4-fluorophenyl)piperidin-3-yl)methoxy)phenoxy)-ethan-1-amine hydrochloride] | 40 to 50 | – |
| COc1ccc(OC[C@@H]2CNCC[C@H]2c2ccc(F)cc2)cc1C(=O)O [Example 4, 5-(((3S,4R)-4-(4-fluorophenyl)piperidin-3-yl)methoxy)-2-methoxybenzoic acid hydrochloride] | > 50 | – |
| Fc1ccc([C@@H]2CCNC[C@H]2COc2ccc3c(c2)OCO3)cc1 [paroxetine, reference compound] | – | gastric emptying [2, 3]: not observed; gastric emptying ([2]; saline (control) mice): not observed |
| O=C(O)COCCOc1ccc(OC[C@@H]2CNCC[C@H]2c2ccc(F)cc2)cc1 [Example 16, 2-(2-(4-(((3S,4R)-4-(4-fluorophenyl)piperidin-3-yl)methoxy)phenoxy)-ethoxy)acetic acid hydrochloride] | 20 to 40 | – |
| O=C(O)c1ccc(OC[C@@H]2CNCC[C@H]2c2ccc(F)cc2)cc1O [Example 3, 4-(((3S,4R)-4-(4-fluorophenyl)piperidin-3-yl)methoxy)-2-hydroxybenzoic acid hydrochloride] | > 50 | – |
| NC(N)=NCCNC(=O)c1ccc(OC[C@@H]2CNCC[C@H]2c2ccc(F)cc2)cc1 [Example 8, N-(2-((diaminomethylene)amino)ethyl)-4-(((3S,4R)-4-(4-fluorophenyl)piperidin-3-yl)methoxy)benzamide] | > 50 | liquid gastric emptying ([2]; FIG. 1, chronic treatment, versus H2O treated group in the same model): increases; gastric emptying [2, 3]: significantly increased; gastric emptying ([2]; saline (control) mice): significantly increased |
| C[N+]1(C)CC[C@@H](c2ccc(F)cc2)[C@H](CCc2ccc3c(c2)OCO3)C1 [Example 17, (3S,4R)-3-(2-(benzo[d][1,3]dioxol-5-yl)ethyl)-4-(4-fluorophenyl)-1,1-dimethylpiperidin-1-ium iodide] | > 50 | – |
| OCCOc1ccc(OC[C@@H]2CNCC[C@H]2c2ccc(F)cc2)cc1 [Example 13, 2-(4-(((3S,4R)-4-(4-fluorophenyl)piperidin-3-yl)methoxy)phenoxy)ethan-1-ol hydrochloride] | > 50 | – |
| NC(=O)NCCNC(=O)c1ccc(OC[C@@H]2CNCC[C@H]2c2ccc(F)cc2)cc1 [Example 9, 4-(((3S,4R)-4-(4-fluorophenyl)piperidin-3-yl)methoxy)-N-(2-ureidoethyl)benzamide hydrochloride] | > 50 | – |
| CN(C)CCCOc1ccc(OC[C@@H]2CNCC[C@H]2c2ccc(F)cc2)cc1 [Example 12, 3-(4-(((3S,4R)-4-(4-fluorophenyl)piperidin-3-yl)methoxy)phenoxy)-N,N-dimethylpropan-1-amine hydrochloride] | > 50 | – |
| OCCOCCOc1ccc(OC[C@@H]2CNCC[C@H]2c2ccc(F)cc2)cc1 [Example 14, 2-(2-(4-(((3S,4R)-4-(4-fluorophenyl)piperidin-3-yl)methoxy)phenoxy)ethoxy)ethan-1-ol hydrochloride] | 20 to 40 | – |
| CN(C)CCN(C)C(=O)c1ccc(OC[C@@H]2CNCC[C@H]2c2ccc(F)cc2)cc1 [Example 7, N-(2-(dimethylamino)ethyl)-4-(((3S,4R)-4-(4-fluorophenyl)piperidin-3-yl)methoxy)-N-methylbenzamide hydrochloride] | > 50 | – |
| NCCNC(=O)c1ccc(OC[C@@H]2CNCC[C@H]2c2ccc(F)cc2)cc1 [Example 5, N-(2-aminoethyl)-4-(((3S,4R)-4-(4-fluorophenyl)piperidin-3-yl)-methoxy)benzamide hydrochloride] | > 50 | – |
